Measured values: patent US12727599B2, “Use of cyclodextrins as agrochemical delivery system” (priority 2018, dated 2026)

Columns and labels:
[1] = Complexation ability of cyclodextrins with chlorantraniliprole; type: physicochemical
[2] = Phase solubility isotherms of folpet-cyclodextrin complexes; type: physicochemical; details: with folpet
Protocol: The weight ratio of folpet to cyclodextrin was approximately 1:2. The content of folpet in the complex was determined by HPLC. Phase solubility isotherms were carried out for the folpet-cyclodextrin complexes.

complexation ability [1] | Molecule | complexation ability [2]
highest complexation ability | OC[C@H]1O[C@@H]2O[C@H]3[C@H](O)[C@@H](O)[C@@H](O[C@H]4[C@H](O)[C@@H](O)[C@@H](O[C@H]5[C@H](O)[C@@H](O)[C@@H](O[C@H]6[C@H](O)[C@@H](O)[C@@H](O[C@H]7[C@H](O)[C@@H](O)[C@@H](O[C@H]1[C@H](O)[C@H]2O)O[C@@H]7CO)O[C@@H]6CO)O[C@@H]5CO)O[C@@H]4CO)O[C@@H]3CO [Alpha-cyclodextrin, alpha cyclodextrin] | 
 | methyl-beta-cyclodextrin [RAMEB cyclodextrin] | highest complexation ability
